Laboratory results from US11472769B2, “SSAO inhibitors and use thereof” (Eccogene (Shanghai) Co., Ltd., priority 2019, dated 2022).
pIC50: −log10 of the molar value.

Key:
Assay type in all cases: biochemical
recombinant hMAO-A = recombinant hMAO-A (Homo sapiens (Human), UniProt P21397); experiment: MAO-A activity assay (MAO-Glo assay kit); settings: 40 μM substrate, 30 mins pre-incubation
Experimental: (§1) The biological activities of the compounds of the present application can be assessed with methods and assays known in the art. For example, the potency of the compounds of the present application can be evaluated with an SSAO Activity Assay. Briefly, compounds of the present application can be applied to recombinant hSSAO, hMAO-A, and hMAO-B isoforms and the amine oxidase activity of the enzymes are measured after the addition and subsequent oxidation of the luminogenic substrate (e.g., with the MAO-Glo assay kit from Promega). The IC50 can be calculated, for example, by fitting the dose response curve using a 4-parameter non-linear regression routine.
(§2) Amine oxidase activity of recombinant hSSAO, hMAO-A, and hMAO-B isoforms are measured using the MAO-Glo assay kit (Promega, V1402). Ten nL test compounds (with DMSO as vehicle, 0.1% v/v for hSSAO, hMAO-A and hMAO-B) were added into assay plates by Echo, and pre-incubated with 5 μL of enzyme for 30 mins at room temperature before the addition of 5 μL of luminogenic substrate. The substrate concentration is 40 μM for human recombinant SSAO, 40 μM for human recombinant MAO-A, and 4 μM for human recombinant MAO-B. The hSSAO and hMAO-A assays were conducted in the MAO-A reaction buffer in the kit, and the MAO-B assay was conducted in the MAO-B reaction buffer. Oxidation of the substrate was conducted for 1 hr, before the addition of detecting reagent according the manufacture's protocol. The IC50 value of the tested compounds was calculated by fitting the dose response curve using a 4-parameter non-linear regression routine.

recombinant hMAO-B = recombinant hMAO-B (Homo sapiens (Human), UniProt P27338); experiment: MAO-B activity assay (MAO-Glo assay kit); settings: 4 μM substrate, 30 mins pre-incubation
recombinant hMAO-B, sequence (P27338 whole entry): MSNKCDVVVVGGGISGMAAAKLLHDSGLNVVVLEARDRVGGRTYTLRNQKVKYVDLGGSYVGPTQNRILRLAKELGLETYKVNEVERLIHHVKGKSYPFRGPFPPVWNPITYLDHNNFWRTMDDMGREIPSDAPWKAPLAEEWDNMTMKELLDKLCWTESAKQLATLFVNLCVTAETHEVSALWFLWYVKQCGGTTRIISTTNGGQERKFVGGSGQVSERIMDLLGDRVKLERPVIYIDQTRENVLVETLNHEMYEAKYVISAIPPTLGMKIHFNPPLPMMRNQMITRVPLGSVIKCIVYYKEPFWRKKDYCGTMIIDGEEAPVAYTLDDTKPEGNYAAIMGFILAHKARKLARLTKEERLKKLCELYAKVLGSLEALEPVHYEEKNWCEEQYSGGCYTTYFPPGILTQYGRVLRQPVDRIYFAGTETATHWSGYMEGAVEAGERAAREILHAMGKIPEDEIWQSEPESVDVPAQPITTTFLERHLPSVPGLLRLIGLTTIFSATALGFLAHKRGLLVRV
Experimental: as §1, §2

recombinant hSSAO = recombinant hSSAO (Homo sapiens (Human), UniProt Q16853); experiment: SSAO Activity Assay (MAO-Glo assay kit); settings: 40 μM substrate, 30 mins pre-incubation
recombinant hSSAO, sequence (Q16853 whole entry): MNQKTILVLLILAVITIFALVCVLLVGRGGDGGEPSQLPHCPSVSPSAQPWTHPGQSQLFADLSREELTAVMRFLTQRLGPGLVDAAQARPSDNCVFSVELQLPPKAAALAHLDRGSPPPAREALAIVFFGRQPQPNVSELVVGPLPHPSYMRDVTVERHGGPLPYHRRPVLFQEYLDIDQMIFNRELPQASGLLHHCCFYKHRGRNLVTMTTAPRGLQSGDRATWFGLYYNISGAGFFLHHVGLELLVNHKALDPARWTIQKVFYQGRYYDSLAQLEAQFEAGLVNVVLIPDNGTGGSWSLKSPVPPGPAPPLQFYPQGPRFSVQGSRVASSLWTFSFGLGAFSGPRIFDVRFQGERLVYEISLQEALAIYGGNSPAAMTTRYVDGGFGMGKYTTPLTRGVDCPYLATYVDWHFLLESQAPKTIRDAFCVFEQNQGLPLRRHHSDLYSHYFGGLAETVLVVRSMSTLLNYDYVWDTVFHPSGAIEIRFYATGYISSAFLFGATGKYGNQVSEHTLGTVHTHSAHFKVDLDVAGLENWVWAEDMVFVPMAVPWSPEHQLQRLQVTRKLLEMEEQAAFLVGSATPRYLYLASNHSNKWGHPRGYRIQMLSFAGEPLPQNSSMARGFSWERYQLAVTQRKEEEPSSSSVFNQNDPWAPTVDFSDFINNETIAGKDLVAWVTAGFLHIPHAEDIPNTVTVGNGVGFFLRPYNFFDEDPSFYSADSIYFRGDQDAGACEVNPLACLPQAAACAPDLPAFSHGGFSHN
Experimental: as §1, §2

recombinant hMAO-A, sequence (P21397 whole entry, canonical isoform): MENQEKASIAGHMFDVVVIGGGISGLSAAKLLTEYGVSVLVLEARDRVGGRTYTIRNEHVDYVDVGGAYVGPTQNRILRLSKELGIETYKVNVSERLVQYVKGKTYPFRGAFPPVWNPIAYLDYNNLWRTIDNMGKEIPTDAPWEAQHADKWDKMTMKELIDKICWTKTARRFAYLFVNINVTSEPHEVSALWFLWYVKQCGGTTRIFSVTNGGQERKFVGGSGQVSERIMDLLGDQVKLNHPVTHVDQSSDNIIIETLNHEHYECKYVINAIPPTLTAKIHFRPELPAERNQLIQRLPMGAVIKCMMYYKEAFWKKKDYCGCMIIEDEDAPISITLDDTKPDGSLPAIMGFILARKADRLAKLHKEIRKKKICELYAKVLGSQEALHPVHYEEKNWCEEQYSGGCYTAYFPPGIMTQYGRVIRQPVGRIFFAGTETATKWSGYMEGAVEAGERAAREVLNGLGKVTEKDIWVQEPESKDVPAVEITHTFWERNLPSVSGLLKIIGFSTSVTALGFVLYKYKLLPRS

| SMILES | pIC50 (recombinant hMAO-A) | pIC50 (recombinant hMAO-B) | pIC50 (recombinant hSSAO) |
| --- | --- | --- | --- |
| CC1(CS(=O)(=O)c2ccc(OC/C(=C/F)CN)cc2)CCN(C(=O)C(C)(C)C)CC1 [Compound 54, (E)-1-(4-(((4-((2-(aminomethyl)-3-fluoroallyl)oxy)phenyl)sulfonyl)methyl)-4-methylpiperidin-1-yl)-2,2-dimethylpropan-1-one] | < 4.52 | < 4.52 | 7.00 to 7.70 |
| CC1(CS(=O)(=O)c2ccc(OC/C(=C/F)CN)cc2)CCN(C(=O)C2(C(F)(F)F)CC2)CC1 [Compound 55, (E)-(4-(((4-((2-(aminomethyl)-3-fluoroallyl)oxy)phenyl)sulfonyl)methyl)-4-methylpiperidin-1-yl)(1-(trifluoromethyl)cyclopropyl) methanone] | < 4.52 | 4.52 to 5.00 | 7.00 to 7.70 |
| CC1(CS(=O)(=O)c2ccc(OC/C(=C/F)CN)cc2)CCN(C(=O)C2(C)CCC2)CC1 [Compound 56, (E)-(4-(((4-((2-(aminomethyl)-3-fluoroallyl)oxy)phenyl)sulfonyl)methyl)-4-methylpiperidin-1-yl)(1-methylcyclobutyl)methanone] | < 4.52 | 4.52 to 5.00 | 7.00 to 7.70 |
| NC/C(=C\F)COc1ccc(S(=O)(=O)CC2CCN(C(=O)C3CCCC3)CC2)c(F)c1 [Compound 58] | < 4.52 | < 4.52 | 6.30 to 7.00 |
| NC/C(=C\F)COc1ccc(S(=O)(=O)CC2CCN(C(=O)CC(F)(F)F)CC2)c(F)c1 [Compound 59, (E)-1-(4-(((4-((2-(aminomethyl)-3-fluoroallyl)oxy)-2-fluorophenyl)sulfonyl)methyl)piperidin-1-yl)-3,3,3-trifluoropropan-1-one] | < 4.52 | < 4.52 | 7.00 to 7.70 |
| NC/C(=C\F)COc1ccc(S(=O)(=O)CC23CCC(C(=O)N4CCCC4)(CC2)CC3)cc1 [Compound 61, (E)-(4-(((4-((2-(aminomethyl)-3-fluoroallyl)oxy)phenyl)sulfonyl)methyl)bicyclo[2.2.2]octan-1-yl)(pyrrolidin-1-yl)methanone] | < 4.52 | 4.52 to 5.00 | > 7.70 |
| NC/C(=C\F)COc1ccc(S(=O)(=O)CC23CCC(C(=O)NCC4CC4)(CC2)CC3)cc1 [Compound 66, (E)-4-(((4-((2-(aminomethyl)-3-fluoroallyl)oxy)phenyl)sulfonyl)methyl)-N-(cyclopropylmethyl)bicyclo [2.2.2]octane-1-carboxamide] | < 4.52 | 4.52 to 5.00 | > 7.70 |
| CC1(NC(=O)C23CCC(CS(=O)(=O)c4ccc(OC/C(=C/F)CN)cc4)(CC2)CC3)CC1 [Compound 67, (E)-4-(((4-((2-(aminomethyl)-3-fluoroallyl)oxy)phenyl)sulfonyl)methyl)-N-(1-methylcyclopropyl)bicyclo[2.2.2] octane-1-carboxamide] | < 4.52 | < 4.52 | > 7.70 |

Results, then the molecule that gave them:

| pIC50 (recombinant hMAO-A) | pIC50 (recombinant hMAO-B) | pIC50 (recombinant hSSAO) | SMILES |
| --- | --- | --- | --- |
| < 4.52 | < 4.52 | > 7.70 | CC(C)OCCNC(=O)C12CCC(CS(=O)(=O)c3ccc(OC/C(=C/F)CN)cc3)(CC1)CC2 [Compound 68, (E)-4-(((4-((2-(aminomethyl)-3-fluoroallyl)oxy)phenyl)sulfonyl)methyl)-N-(2-isopropoxyethyl)bicyclo[2.2.2] octane-1-carboxamide] |
| < 4.52 | 4.52 to 5.00 | > 7.70 | NC/C(=C\F)COc1ccc(S(=O)(=O)CC23CCC(C(=O)NC4CC(F)(F)C4)(CC2)CC3)cc1 [Compound 69, (E)-4-(((4-((2-(aminomethyl)-3-fluoroallyl)oxy)phenyl)sulfonyl)methyl)-N-(3,3-difluorocyclobutyl)bicyclo[2.2.2] octane-1-carboxamide] |
| < 4.52 | 4.52 to 5.00 | > 7.70 | NC/C(=C\F)COc1ccc(S(=O)(=O)CC23CCC(C(=O)N4CCC4)(CC2)CC3)cc1 [Compound 71] |
| < 4.52 | < 4.52 | > 7.70 | NC/C(=C\F)COc1ccc(S(=O)(=O)CC23CCC(C(=O)N4CC(F)(F)C4)(CC2)CC3)cc1 [Compound 72] |
